Source: patent publication US6372937B1, “Enhanced catalyzed reporter deposition” (priority 1998, dated 2002)
Each block holds one compound with its values, some of them ahead of it.

Columns and labels:
[1] = target: T1, HRP (Armoracia rusticana, UniProt P00433); test: Enhanced CARD detection using cyanine 3 tyramide on human prostate tissue slides; type: biochemical, horseradish
T1 sequence (P00433 31-338): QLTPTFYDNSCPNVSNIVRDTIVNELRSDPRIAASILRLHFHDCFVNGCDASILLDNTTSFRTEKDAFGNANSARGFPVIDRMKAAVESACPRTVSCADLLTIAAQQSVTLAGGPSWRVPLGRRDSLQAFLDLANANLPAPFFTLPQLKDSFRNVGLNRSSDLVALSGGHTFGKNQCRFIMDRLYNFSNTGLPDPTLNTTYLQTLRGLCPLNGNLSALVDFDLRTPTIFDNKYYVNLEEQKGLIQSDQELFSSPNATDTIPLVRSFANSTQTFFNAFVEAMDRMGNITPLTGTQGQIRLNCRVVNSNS
Experimental: Human prostate tissue slides (Dako Corp., Carpinteria, Calif.) were deparaffinized and blocked for thirty minutes with TNB Blocking Buffer (TSA Direct Cyanine 3 kit, NEN Life Science Products, Boston, Mass.). Rabbit anti-human prostate specific antigen (Dako) diluted 1/40,000 in TNB buffer was incubated for one hour at room temperature. The slides were washed in TNT buffer (TSA Direct Cyanine 3 kit) and then incubated with an anti-rabbit IgG-HRP conjugate (Roche Molecular Biochemicals, Indianapolis, Ind.) diluted 1/1000 in TNB buffer for one hour at room temperature. Standard CARD detection was performed using the TSA Direct Cyanine 3 kit. Organic enhanced CARD detection was performed using the TSA Direct Cyanine 3 kit and adding p-iodophenyl boronic acid (structure 2) at a 20:1 (w/w) ratio to the cyanine 3 tyramide reagent. Organic and salt enhanced CARD detection was performed using the TSA Direct Cyanine 3 kit, adding p-iodophenyl boronic acid (structure 2) at a 20:1 (w/w) ratio to the cyanine 3 tyramide reagent and adding NaCl to the diluent to a final concentration of 2M. The slides were washed in TNT buffer, mounted with mounting medium and a coverslip.

[2] = target: T1, HRP; test: Enhanced CARD detection using fluorescein tyramide on human prostate tissue slides; type: biochemical, horseradish
Experimental: Human prostate tissue slides (Dako) were deparaffinized and blocked for thirty minutes with TNB Blocking Buffer (TSA Direct Green kit, NEN Life Science Products). Rabbit anti-human prostate specific antigen (Dako) diluted 1/10,000 in TNB buffer was incubated for one hour at room temperature. The slides were washed in TNT buffer (TSA Direct Green kit) and then incubated with an anti-rabbit IgG-HRP conjugate (Roche) diluted 1/1000 in TNB buffer for one hour at room temperature. Standard CARD detection was performed using the TSA Direct Green kit, which utilizes fluorescein tyramide. Organic enhanced CARD detection was performed using the TSA Direct Green kit and adding p-iodophenyl boronic acid (structure 2) at a 20:1 (w/w) ratio to the fluorescein tyramide reagent. Organic and salt enhanced CARD detection was performed using the TSA Direct Green kit, adding p-iodophenyl boronic acid (structure 2) at a 20:1 (w/w) ratio to the fluorescein tyramide reagent and adding NaCl to the diluent to a final concentration of 2M. The slides were washed in TNT buffer, mounted with mounting medium and a coverslip.

[3] = target: T1, HRP; test: Enhanced CARD detection using biotinyl tyramide on human prostate tissue slides; type: biochemical, horseradish; settings: enhancer at 20:1 (w/w) plus NaCl 2M, Streptavidin-HRP/diaminobenzidine readout
Experimental: Human prostate tissue slides (Dako) were deparaffinized and blocked for thirty minutes with TNB Blocking Buffer (TSA Indirect kit, NEN Life Science Products). Rabbit anti-human prostate specific antigen (Dako) diluted 1/100,000 in TNB buffer was incubated for one hour at room temperature. The slides were washed in TNT buffer (TSA Indirect kit) and then incubated with an anti-rabbit IgG-HRP conjugate (Roche) diluted 1/1000 in TNB buffer for one hour at room temperature.
Standard CARD detection was performed using the TSA Indirect kit, which utilizes biotinyl tyramide. Organic and salt enhanced CARD detection was performed using the TSA Indirect kit, adding N-(5-hydroxypentyl)-3-(p-hydroxyphcnyl)propionamide (structure 1) at a 20:1 (w/w) ratio to the biotinyl tyramide reagent and adding NaCl to the diluent to a final concentration of 2M. The slides were washed in TNT buffer, and Streptavidin-HRP (TSA Indirect kit) diluted 1/100 in TNB buffer was incubated for thirty minutes at room temperature. The slides were washed in TNT buffer and diaminobenzidine (NEN Life Science Products) was added and incubated for three minutes at room temperature. The slides were washed with water, and counterstained with Hematoxylin. The slides were then washed with water, phosphate buffered saline, water, dehydrated and mounted.

[4] = target: T1, HRP; settings: cited from earlier work
[5] = enhancer at 20:1 (w/w) ratio to tyramide reagent
[6] = NaCl 2M in diluent added to p-iodophenyl boronic acid 20:1 (w/w)

organic enhanced vs standard CARD detection (FIG. 1A compared to FIG. 1B) [1, 5]: very dramatic difference
organic enhanced vs standard CARD detection (FIG. 2A compared to FIG. 2B) [2, 5]: significant difference
SMILES: OB(O)c1ccc(I)cc1 [p-iodophenyl boronic acid]

SMILES: [Cl-].[Na+] [NaCl]
addition of salt to the organic enhanced CARD detection (FIG. 1B compared to FIG. 1C) [1, 6]: significant improvement
addition of salt to the organic enhanced CARD detection (FIG. 2B compared to FIG. 2C) [2, 6]: very dramatic improvement

organic and salt enhanced vs standard CARD detection (FIG. 3A compared to FIG. 3B) [3]: striking difference
SMILES: O=C(CCc1ccc(O)cc1)NCCCCCO [N-(5-hydroxypentyl)-3-(p-hydroxyphcnyl)propionamide]

SMILES: c1c[nH]cn1 [imidazole]
effect on the oxidation of 4-chloro-1-naphthol ([4]; substrate 4-chloro-1-naphthol): no effect
enhancement of the oxidation of p-phenylenediamine-pyrocatechol ([4]; substrate combination p-phenylenediamine-pyrocatechol): two fold
enhancement of the oxidation of diaminobenzidine ([4]; substrate diaminobenzidine): approximately four fold
